Measurements reported in patent publication US9771333B2, “Quinazoline derivatives as TAM family kinase inhibitors” (SIGNALCHEM LIFESCIENCES CORP., priority 2013, dated 2017).

Legend:
Format in all cases: biochemical
human Tyro3 = target: T1, human Tyro3 (Homo sapiens, UniProt Q06418); assay: Kinase enzymatic activity assay (33P-radiolabeled phosphate transfer), Tyro3; details: recombinant human Tyro3 (455-end), poly(4:1 glu:tyr) substrate, 30 minutes
T1 construct: GST (N); made in house; host or cells: Sf9 insect cells (baculovirus)
T1 sequence (Q06418 455-890 limits assumed): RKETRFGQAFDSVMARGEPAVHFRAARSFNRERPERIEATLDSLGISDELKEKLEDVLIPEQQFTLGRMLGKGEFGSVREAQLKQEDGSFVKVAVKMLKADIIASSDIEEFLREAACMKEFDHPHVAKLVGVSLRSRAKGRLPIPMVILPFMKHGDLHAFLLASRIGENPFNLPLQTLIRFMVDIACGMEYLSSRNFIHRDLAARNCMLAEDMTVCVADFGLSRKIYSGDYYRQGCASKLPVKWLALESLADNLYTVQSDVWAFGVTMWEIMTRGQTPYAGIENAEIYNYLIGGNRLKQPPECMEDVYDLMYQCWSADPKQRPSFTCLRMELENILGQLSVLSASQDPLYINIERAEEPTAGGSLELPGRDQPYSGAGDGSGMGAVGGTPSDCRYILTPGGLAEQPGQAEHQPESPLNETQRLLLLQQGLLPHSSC
Outline: (§1)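 GST-tagged human Tyro3 (455-end), Axl (473-end) and Mer (578-872) from Sf9 cells, with poly(Glu:Tyr) 4:1 substrate, in MOPS pH 7.2 buffer with MgCl2. [33P]-ATP added from a 250 µM cocktail; reaction 30 min at room temperature, filter-captured counts, duplicates. IC50 derived from % inhibition over a compound serial dilution.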

human Mer = target: T2, human Mer (Homo sapiens, UniProt Q12866); assay: Kinase enzymatic activity assay (33P-radiolabeled phosphate transfer), Mer; details: recombinant human Mer (578-872), poly(4:1 glu:tyr) substrate, 30 minutes
T2 construct: GST (N); made in house; host or cells: Sf9 insect cells (baculovirus)
T2 sequence (Q12866 578-872): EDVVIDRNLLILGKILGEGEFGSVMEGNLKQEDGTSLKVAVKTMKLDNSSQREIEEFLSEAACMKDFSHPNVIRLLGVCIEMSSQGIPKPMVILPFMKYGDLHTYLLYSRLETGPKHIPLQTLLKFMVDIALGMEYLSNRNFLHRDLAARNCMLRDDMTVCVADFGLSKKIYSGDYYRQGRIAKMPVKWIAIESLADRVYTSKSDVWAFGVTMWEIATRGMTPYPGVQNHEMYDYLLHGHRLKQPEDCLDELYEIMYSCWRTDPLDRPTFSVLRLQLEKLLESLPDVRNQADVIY
Outline: as §1

human Axl = target: T3, human Axl (Homo sapiens, UniProt P30530); assay: Kinase enzymatic activity assay (33P-radiolabeled phosphate transfer), Axl; details: recombinant human Axl (473-end), poly(4:1 glu:tyr) substrate, 30 minutes
T3 construct: GST (N); made in house; host or cells: Sf9 insect cells (baculovirus)
T3 sequence (P30530 473-894 limits assumed): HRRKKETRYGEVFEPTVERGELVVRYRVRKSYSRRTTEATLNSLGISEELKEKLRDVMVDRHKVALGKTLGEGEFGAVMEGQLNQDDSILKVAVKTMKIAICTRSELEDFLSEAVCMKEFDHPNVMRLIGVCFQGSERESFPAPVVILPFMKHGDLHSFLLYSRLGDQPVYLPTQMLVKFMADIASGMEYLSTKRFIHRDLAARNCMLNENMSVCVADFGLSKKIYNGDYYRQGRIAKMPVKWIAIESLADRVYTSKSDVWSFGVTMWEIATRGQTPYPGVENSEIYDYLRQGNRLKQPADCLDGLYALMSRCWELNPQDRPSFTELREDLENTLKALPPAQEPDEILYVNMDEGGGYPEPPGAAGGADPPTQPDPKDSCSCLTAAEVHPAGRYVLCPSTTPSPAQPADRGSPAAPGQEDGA
Outline: as §1

| IC50 (human Tyro3) | IC50 (human Mer) | IC50 (human Axl) | Compound |
| --- | --- | --- | --- |
| < 500 nM | < 500 nM | < 500 nM | CN1CCN(CCCOc2cc(OC3CCOCC3)c3c(Oc4ccc(F)cc4Cl)ncnc3c2)CC1 [Example 2.63, 4-(2-chloro-4-fluorophenoxy)-7-(3-(4-methylpiperazin-1-yl)propoxy)-5-((tetrahydro-2H-pyran-4-yl)oxy)quinazoline] |
| < 500 nM | < 500 nM | 1000 to 10000 nM | Fc1ccc(Oc2ncnc3cc(OCCN4CCCCC4)cc(OC4CCOCC4)c23)c(Cl)c1 [Example 1, 4-(2-chloro-4-fluorophenoxy)-7-(2-(piperidin-1-yl)ethoxy)-5-((tetrahydro-2H-pyran-4-yl)oxy)quinazoline] |
| 1000 to 10000 nM | > 10000 nM | 1000 to 10000 nM | COC(=O)c1cccc(Oc2ncnc3cc(OCCN4CCN(C)CC4)cc(OC4CCOCC4)c23)c1 [Example 2.30, methyl 3-((7-(2-(4-methylpiperazin-1-yl)ethoxy)-5-((tetrahydro-2H-pyran-4-yl)oxy)quinazolin-4-yl)oxy)benzoate] |
| 1000 to 10000 nM | 1000 to 10000 nM | 1000 to 10000 nM | CC1(C)OC[C@H](COc2cc(OC3CCOCC3)c3c(Oc4ccc(F)cc4Cl)ncnc3c2)O1 [Example 2.9, (S)-4-(2-chloro-4-fluorophenoxy)-7-((2,2-dimethyl-1,3-dioxolan-4-yl)methoxy)-5-((tetrahydro-2H-pyran-4-yl)oxy)quinazoline] |
| > 10000 nM | > 10000 nM | 500 to 1000 nM | Cc1nnc(Sc2ncnc3cc(OCC4CCN(C)CC4)cc(OC4CCOCC4)c23)s1 [Example 2.48, 2-methyl-5-((7-((1-methylpiperidin-4-yl)methoxy)-5-((tetrahydro-2H-pyran-4-yl)oxy)quinazolin-4-yl)thio)-1,3,4-thiadiazole] |
| < 500 nM | 1000 to 10000 nM | < 500 nM | Cc1csc(Sc2ncnc3cc(OCC4CCN(C)CC4)cc(OC4CCOCC4)c23)n1 [Example 2.51, 4-methyl-2-((7-((1-methylpiperidin-4-yl)methoxy)-5-((tetrahydro-2H-pyran-4-yl)oxy)quinazolin-4-yl)thio)thiazole] |
| 500 to 1000 nM | 1000 to 10000 nM | > 10000 nM | COCCN(C)CCOc1cc(OC2CCOCC2)c2c(Oc3ccc(F)cc3Cl)ncnc2c1 [Example 2.3, 2-((4-(2-chloro-4-fluorophenoxy)-5-((tetrahydro-2H-pyran-4-yl)oxy)quinazolin-7-yl)oxy)-N-(2-methoxyethyl)-N-methylethanamine] |
| < 500 nM | < 500 nM | 1000 to 10000 nM | CN(C)CCOCCOc1cc(OC2CCOCC2)c2c(Oc3ccc(F)cc3Cl)ncnc2c1 [Example 2.2, 2-(2-((4-(2-chloro-4-fluorophenoxy)-5-((tetrahydro-2H-pyran-4-yl)oxy)quinazolin-7-yl)oxy)ethoxy)-N,N-dimethylethanamine] |
| < 500 nM | 1000 to 10000 nM | 1000 to 10000 nM | COc1cc(OCCN2CCN(C)CC2)cc2ncnc(Oc3ccc(F)cc3Cl)c12 [Example 2.12, 4-(2-chloro-4-fluorophenoxy)-5-methoxy-7-(2-(4-methylpiperazin-1-yl)ethoxy)quinazoline] |
| > 10000 nM | 1000 to 10000 nM | 1000 to 10000 nM | Cc1nnc(Nc2ncnc3cc(OCC4CCN(C)CC4)cc(OC4CCOCC4)c23)s1 [Example 2.36, 5-methyl-N-(7-((1-methylpiperidin-4-yl)methoxy)-5-((tetrahydro-2H-pyran-4-yl)oxy)quinazolin-4-yl)-1,3,4-thiadiazol-2-amine] |
| > 10000 nM | < 500 nM | < 500 nM | FC(F)(F)c1csc(Nc2ncnc3cc(OCCN4CCCCC4)cc(OC4CCOCC4)c23)n1 [Example 2.60, N-(7-(2-(piperidin-1-yl)ethoxy)-5-((tetrahydro-2H-pyran-4-yl)oxy)quinazolin-4-yl)-4-(trifluoromethyl)thiazol-2-amine] |
| 1000 to 10000 nM | 500 to 1000 nM | 1000 to 10000 nM | Fc1ccc(Oc2ncnc3cc(OCCN4CCOCC4)cc(OC4CCOCC4)c23)c(Cl)c1 [Example 2.1, 4-(2-((4-(2-chloro-4-fluorophenoxy)-5-((tetrahydro-2H-pyran-4-yl)oxy)-quinazolin-7-yl)oxy)ethyl)morpholine] |
| > 10000 nM | > 10000 nM | > 10000 nM | CN1CCC(COc2cc(OC3CCOCC3)c3c(Nc4ncn[nH]4)ncnc3c2)CC1 [Example 8, 7-((1-methylpiperidin-4-yl)methoxy)-5-((tetrahydro-2H-pyran-4-yl)oxy)-N-(1H-1,2,4-triazol-5-yl)quinazolin-4-amine] |
| 500 to 1000 nM | 500 to 1000 nM | 1000 to 10000 nM | OC[C@@H](O)COc1cc(OC2CCOCC2)c2c(Oc3ccc(F)cc3Cl)ncnc2c1 [Example 5, (R)-3-((4-(2-chloro-4-fluorophenoxy)-5-((tetrahydro-2H-pyran-4-yl)oxy)quinazolin-7-yl)oxy)propane-1,2-diol] |
| 1000 to 10000 nM | 1000 to 10000 nM | > 10000 nM | Fc1ccc(Oc2ncnc3cc(OCCCN4CCOCC4)cc(N4CCOCC4)c23)c(Cl)c1 [Example 4.8, 4-(3-((4-(2-chloro-4-fluorophenoxy)-5-morpholinoquinazolin-7-yl)oxy)propyl)morpholine] |
| < 500 nM | 1000 to 10000 nM | 1000 to 10000 nM | COc1cc(OCCCN2CCOCC2)cc2ncnc(Oc3ccc(F)cc3Cl)c12 [Example 2.17, 4-(3-((4-(2-chloro-4-fluorophenoxy)-5-methoxyquinazolin-7-yl)oxy)propyl)morpholine] |
| > 10000 nM | 1000 to 10000 nM | 500 to 1000 nM | FC(F)(F)c1csc(Nc2ncnc3cc(OCCCN4CCOCC4)cc(OC4CCOCC4)c23)n1 [Example 2.18, N-(7-(3-morpholinopropoxy)-5-((tetrahydro-2H-pyran-4-yl)oxy)quinazolin-4-yl)-4-(trifluoromethyl)thiazol-2-amine] |
| > 10000 nM | > 10000 nM | < 500 nM | COc1cc(OCC2CCN(C)CC2)cc2ncnc(Nc3nc(C(F)(F)F)cs3)c12 [Example 2.13, N-(5-methoxy-7-((1-methylpiperidin-4-yl)methoxy)quinazolin-4-yl)-4-(trifluoromethyl)thiazol-2-amine] |
| 1000 to 10000 nM | > 10000 nM | 1000 to 10000 nM | COCCOc1cc(OCCN2CCN(C)CC2)cc2ncnc(Sc3ccc(Cl)cc3Cl)c12 [Example 4.4, 4-((2,4-dichlorophenyl)thio)-5-(2-methoxyethoxy)-7-(2-(4-methylpiperazin-1-yl)ethoxy)quinazoline] |
| 1000 to 10000 nM | 500 to 1000 nM | < 500 nM | CN1CCC(COc2cc(OC3CCOCC3)c3c(Nc4nncs4)ncnc3c2)CC1 [Example 2.38, N-(7-((1-methylpiperidin-4-yl)methoxy)-5-((tetrahydro-2H-pyran-4-yl)oxy)quinazolin-4-yl)-1,3,4-thiadiazol-2-amine] |
| 1000 to 10000 nM | > 10000 nM | < 500 nM | COc1ncnc2cc(OCCOCCN(C)C)cc(OC3CCOCC3)c12 [Example 2.16, 2-(2-((4-methoxy-5-((tetrahydro-2H-pyran-4-yl)oxy)quinazolin-7-yl)oxy)ethoxy)-N,N-dimethylethanamine] |
